Test results reported in patent publication US12575571B2, “1-amino-1-cyclopropanecarboxylic acid and methyl jasmonate mixtures and uses thereof” (Valent BioSciences LLC, priority 2022, dated 2026).

Legend:
[1] = test system: unripened apples, Imperial Gala variety; test: Apple coloration in Imperial Gala variety (percent red pixel area after foliar spray); type: in vivo; conditions: 34 hours post spray; for Fold Change From control: vs 0.05% Regulaid control
Method: (§1) 10 sets of unripened apples, Imperial Gala variety, harvested three weeks before the normal harvest date, were each foliar sprayed with either 1) 0.05% Regulaid® as a control, 2) 50 ppm methyl jasmonate, 3) 300 ppm methyl jasmonate, 4) 50 ppm ACC, 5) 300 ppm ACC or 6) a mixture of 50 ppm methyl jasmonate and 50 ppm ACC or 7) a mixture of 300 ppm methyl jasmonate and 300 ppm ACC. 34 hours post spray application percent red pixel area (shaded) was measured. Percent red pixel area is an indication of the coloration of the apple fruit.
(§2) To determine if the mixture provided unexpected results, the observed combined efficacy (“OCE”) was divided by the expected combined efficacy (“ECE”) wherein the ECE is calculated by the Abbott method: ECE=A+B−(AB/100), wherein ECE is the expected combined efficacy and in which A and B are the fold change from control given by the single active ingredients. If the ratio between the OCE of the mixture and the ECE of the mixture is greater than 1, then greater than expected interactions are present in the mixture. (Gisi, Synergistic Interaction of Fungicides in Mixtures, The American Phytopathological Society, 86:11, 1273-1279,1996).

[2] = test system: unripened apples, Ultima Gala variety; test: Apple coloration in Ultima Gala variety (percent red pixel area after foliar spray); type: in vivo; conditions: 34 hours post spray; for Fold Change From control: vs 0.05% Regulaid control
Method: as §2
as §1, with “Ultima” for “Imperial”

[3] = 50 ppm (each active) foliar spray
[4] = 300 ppm (each active) foliar spray

## CC/C=C\CC1C(=O)CCC1CC(=O)OC (centres unmarked) [methyl jasmonate]
[1]; [3]
  Average % Red Pixel Area: 63.31%
[1]; 50 ppm (each active)
  Fold Change From control: 8.31
[1]; [4]
  Average % Red Pixel Area: 47.60%
[1]; 300 ppm (each active)
  Fold Change From control: 6.00
[2]; [3]
  Average % Red Pixel Area: 36.64%
[2]; 50 ppm (each active)
  Fold Change From control: 2.30
[2]; [4]
  Average % Red Pixel Area: 46.37%
[2]; 300 ppm (each active)
  Fold Change From control: 3.17
